Experimental data published in the supplement of paper PMC10627819.

What was measured:
S. aureus DSM 20231 [1] = test: Bliss interaction score (quartile over a dose matrix) (fitness difference); higher = more antagonism (negative = synergy)
Outline: (§1)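 The Bliss score takes observed fitness and subtracts the expected fitness, calculated as a product of single-drug fitness values. Those single-drug values were inferred from the combination data. Fitness is OD595 at entry into stationary phase divided by the plate's robust no-drug mean, capped at 1, and the score is summarised by quartiles across technical, biological and donor/recipient replicates.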

B. subtilis 168 [2] = test: as above
Outline: as §1

S. aureus Newman [3] = test: as above
Outline: as §1

S. pneumoniae D39V [4] = test: as above
Outline: as §1

S. aureus DSM 20231 [5] = test: fitness (endpoint OD595 vs no drug) (fraction); higher = more growth
Outline: (§2)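 Cultures at OD595 0.01 were dispensed into 384-well plates in TSB, LB Lennox or CY and incubated at 37 °C. Every 30 min for 14 h, OD595 was read and corrected by the first reading. Fitness is the optical density at entry into stationary phase relative to the robust mean of no-drug control wells, capped at 1.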

B. subtilis 168 [6] = test: as above
Outline: as §2

S. aureus Newman [7] = test: as above
Outline: as §2

S. pneumoniae D39V [8] = test: as above
Outline: as §2
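Throughout, for Bliss interaction score (quartile over a dose matrix): first quartile when negative (synergy) and third quartile when positive (antagonism).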

CCC[C@@H]1C[C@@H](C(=O)N[C@@H]([C@H]2O[C@H](SC)[C@H](O)[C@@H](O)[C@H]2O)[C@H](C)Cl)N(C)C1 [Clindamycin] + CN1C2=CC=CC=C2N=C3C1=CC=CC3=O [Pyocyanin]
Conditions | Bliss interaction score
B. subtilis 168 [2] | 0.0629
S. aureus DSM 20231 [1] | 0.025
S. aureus Newman [3] | -0.141
S. pneumoniae D39V [4] | -0.0665

Conditions | fitness
B. subtilis 168 [6], first compound 0.0625 µg/mL, partner 1.25 µg/mL | 0.562
B. subtilis 168 [6], first compound 0.0625 µg/mL, partner 2.5 µg/mL | 0.576
B. subtilis 168 [6], first compound 0.0625 µg/mL, partner 5 µg/mL | 0.517
B. subtilis 168 [6], first compound 0.125 µg/mL, partner 1.25 µg/mL | 0.388
B. subtilis 168 [6], first compound 0.125 µg/mL, partner 2.5 µg/mL | 0.389
B. subtilis 168 [6], first compound 0.125 µg/mL, partner 5 µg/mL | 0.358
B. subtilis 168 [6], first compound 0.25 µg/mL, partner 1.25 µg/mL | 0.34
B. subtilis 168 [6], first compound 0.25 µg/mL, partner 2.5 µg/mL | 0.319
B. subtilis 168 [6], first compound 0.25 µg/mL, partner 5 µg/mL | 0.314
S. aureus DSM 20231 [5], first compound 0.0625 µg/mL, partner 5 µg/mL | 0.0689
S. aureus DSM 20231 [5], first compound 0.125 µg/mL, partner 1.25 µg/mL | 0.0414
S. aureus DSM 20231 [5], first compound 0.125 µg/mL, partner 2.5 µg/mL | 0.0387
S. aureus DSM 20231 [5], first compound 0.125 µg/mL, partner 5 µg/mL | 0.0705
S. aureus Newman [7], first compound 0.0312 µg/mL, partner 1.25 µg/mL | 0.602
S. aureus Newman [7], first compound 0.0312 µg/mL, partner 2.5 µg/mL | 0.424
S. aureus Newman [7], first compound 0.0312 µg/mL, partner 5 µg/mL | 0.155
S. aureus Newman [7], first compound 0.0625 µg/mL, partner 2.5 µg/mL | 0.179
S. aureus Newman [7], first compound 0.0625 µg/mL, partner 5 µg/mL | 0.0835
S. aureus Newman [7], first compound 0.125 µg/mL, partner 1.25 µg/mL | 0.0658
S. aureus Newman [7], first compound 0.125 µg/mL, partner 2.5 µg/mL | 0.0591
S. aureus Newman [7], first compound 0.125 µg/mL, partner 5 µg/mL | 0.0732
S. pneumoniae D39V [8], first compound 0.0125 µg/mL, partner 0.325 µg/mL | 0.775
S. pneumoniae D39V [8], first compound 0.0125 µg/mL, partner 0.65 µg/mL | 0.742
S. pneumoniae D39V [8], first compound 0.0125 µg/mL, partner 1.3 µg/mL | 0.564
S. pneumoniae D39V [8], first compound 0.025 µg/mL, partner 0.325 µg/mL | 0.49
S. pneumoniae D39V [8], first compound 0.025 µg/mL, partner 0.65 µg/mL | 0.458
S. pneumoniae D39V [8], first compound 0.025 µg/mL, partner 1.3 µg/mL | 0.333
S. pneumoniae D39V [8], first compound 0.05 µg/mL, partner 0.325 µg/mL | 0.192
S. pneumoniae D39V [8], first compound 0.05 µg/mL, partner 0.65 µg/mL | 0.147
S. pneumoniae D39V [8], first compound 0.05 µg/mL, partner 1.3 µg/mL | 0.0814

fitness, one replicate
Conditions | first compound 0.0039 µg/mL | first compound 0.0078 µg/mL | first compound 0.015 µg/mL | first compound 0.0156 µg/mL | first compound 0.03 µg/mL | first compound 0.06 µg/mL
B. subtilis 168 [6], partner 1.25 µg/mL | 0.892 | 0.424 | – | 0.863 | – | –
B. subtilis 168 [6], partner 2.5 µg/mL | 0.922 | 0.451 | – | 0.802 | – | –
B. subtilis 168 [6], partner 5 µg/mL | 0.821 | 0.495 | – | 0.725 | – | –
S. pneumoniae D39V [8], partner 0.325 µg/mL | – | – | 0.89 | – | 0.873 | 0.554
S. pneumoniae D39V [8], partner 0.65 µg/mL | – | – | 0.963 | – | 0.881 | 0.689

CCC[C@@H]1C[C@@H](C(=O)N[C@@H]([C@H]2O[C@H](SC)[C@H](O)[C@@H](O)[C@H]2O)[C@H](C)Cl)N(C)C1 [Clindamycin] + CN(N=O)C(=O)N[C@@H](C=O)[C@@H](O)[C@H](O)[C@H](O)CO [Streptozotocin]
Conditions | Bliss interaction score
B. subtilis 168 [2] | 0.0373
S. aureus DSM 20231 [1] | -0.0342
S. aureus Newman [3] | 0.0448
S. pneumoniae D39V [4] | -0.0563

fitness
Conditions | partner 0.15 µg/mL | partner 0.3 µg/mL | partner 0.6 µg/mL | partner 1.2 µg/mL | partner 2.4 µg/mL | partner 4.8 µg/mL
S. aureus DSM 20231 [5], first compound 0.0625 µg/mL | 0.0812 | 0.0698 | 0.0805 | – | – | –
S. aureus DSM 20231 [5], first compound 0.125 µg/mL | 0.0369 | 0.0299 | 0.0239 | – | – | –
S. aureus Newman [7], first compound 0.0312 µg/mL | 0.608 | 0.612 | 0.475 | – | – | –
S. aureus Newman [7], first compound 0.0625 µg/mL | 0.329 | 0.336 | 0.243 | – | – | –
S. aureus Newman [7], first compound 0.125 µg/mL | 0.0373 | 0.0413 | 0.0299 | – | – | –
S. pneumoniae D39V [8], first compound 0.0125 µg/mL | – | – | – | 0.661 | 0.682 | 0.688
S. pneumoniae D39V [8], first compound 0.025 µg/mL | – | – | – | 0.413 | 0.439 | 0.445
S. pneumoniae D39V [8], first compound 0.05 µg/mL | – | – | – | 0.175 | 0.207 | 0.196

fitness, one replicate
Conditions | first compound 0.0039 µg/mL | first compound 0.0078 µg/mL | first compound 0.015 µg/mL | first compound 0.0156 µg/mL | first compound 0.03 µg/mL | first compound 0.06 µg/mL | first compound 0.0625 µg/mL | first compound 0.125 µg/mL | first compound 0.25 µg/mL
B. subtilis 168 [6], partner 0.15 µg/mL | 1 | 0.954 | – | 0.951 | – | – | 0.545 | 0.41 | 0.378
B. subtilis 168 [6], partner 0.3 µg/mL | ≥ 1 | 0.857 | – | 0.894 | – | – | 0.504 | 0.383 | 0.366
B. subtilis 168 [6], partner 0.6 µg/mL | ≥ 1 | 0.915 | – | 0.89 | – | – | 0.521 | 0.374 | 0.365
S. pneumoniae D39V [8], partner 1.2 µg/mL | – | – | 0.817 | – | 0.702 | 0.595 | – | – | –
S. pneumoniae D39V [8], partner 2.4 µg/mL | – | – | 0.908 | – | 0.79 | 0.666 | – | – | –
S. pneumoniae D39V [8], partner 4.8 µg/mL | – | – | 0.909 | – | 0.71 | 0.554 | – | – | –
